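Exposure lasted 48 hours, with cells grown in 96-well plates and compounds tested at five concentrations. At the TGI there is no net growth.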
Columns and labels:
Test in all cases: growth of human tumour cells (NCI), 48 h
[1] = tested on: HOP-62 NSCLC
[2] = tested on: CAKI-1 renal
[3] = tested on: HCT-15 colon
[4] = tested on: SF-295 CNS
[5] = tested on: SNB-75 CNS
[6] = tested on: NCI-H23 lung
[7] = tested on: KM12 colon
[8] = tested on: OVCAR-8 ovarian
[9] = tested on: HCC-2998 colon
[10] = tested on: SK-MEL-2 melanoma
[11] = tested on: MDA-MB-435
[12] = tested on: DU-145 prostate
[13] = tested on: A498 renal
[14] = tested on: UACC-257 melanoma
[15] = tested on: TK-10 renal
[16] = tested on: K-562 leukemia
[17] = tested on: CCRF-CEM leukemia
[18] = tested on: U251 CNS
[19] = tested on: MOLT-4 leukemia
[20] = tested on: SW-620 colon
[21] = tested on: PC-3 prostate
[22] = tested on: NCI-H226 lung
[23] = tested on: HS 578T breast
[24] = tested on: MCF7 breast
[25] = tested on: MDA-N
[26] = tested on: SNB-19 CNS
[27] = tested on: EKVX NSCLC
[28] = tested on: HL-60(TB) leukemia
[29] = tested on: SK-OV-3 ovarian
[30] = tested on: T-47D breast
[31] = tested on: HCT-116 colon
[32] = tested on: NCI-H522 lung
[33] = tested on: SF-539 CNS
[34] = tested on: MALME-3M melanoma
[35] = tested on: 786-0 renal
[36] = tested on: OVCAR-3 ovarian
[37] = tested on: M14 melanoma
[38] = tested on: RPMI-8226 leukemia
[39] = tested on: BT-549 breast
[40] = tested on: IGROV1 ovarian
[41] = tested on: ACHN renal
[42] = tested on: RXF 393 renal
[43] = tested on: NCI-H460 lung
[44] = tested on: LOX IMVI melanoma
[45] = tested on: A549 NSCLC
[46] = tested on: SF-268 CNS
[47] = tested on: OVCAR-4 ovarian
[48] = tested on: NCI/ADR-RES ovarian
[49] = tested on: UACC-62 melanoma
[50] = tested on: OVCAR-5 ovarian
[51] = tested on: SK-MEL-28 melanoma
[52] = tested on: HT29 colon
[53] = tested on: HOP-92 NSCLC
[54] = tested on: COLO 205 colon
[55] = tested on: MDA-MB-231 breast
[56] = tested on: SN12C renal
[57] = tested on: SR leukemia
[58] = tested on: SK-MEL-5 melanoma
[59] = tested on: UO-31 renal

COc1ccccc1OC/C(N=Cc1cccnc1)=N/NC(=O)c1ccncc1
TGI [1]: > 100 µM
TGI [2]: > 100 µM
TGI [3]: > 100 µM
TGI [4]: > 100 µM
TGI [5]: > 100 µM
TGI [6]: > 100 µM
TGI [7]: > 100 µM
TGI [8]: > 100 µM
TGI [9]: > 100 µM
TGI [10]: > 100 µM
TGI [11]: > 100 µM
TGI [12]: > 100 µM
TGI [13]: > 100 µM
TGI [14]: > 100 µM
TGI [15]: > 100 µM
TGI [16]: > 100 µM
TGI [17]: > 100 µM
TGI [18]: > 100 µM
TGI [19]: > 100 µM
TGI [20]: > 100 µM
TGI [21]: > 100 µM
TGI [22]: > 100 µM
TGI [23]: > 100 µM
TGI [24]: > 100 µM
TGI [25]: > 100 µM
TGI [26]: > 100 µM
TGI [27]: > 100 µM
TGI [28]: > 100 µM
TGI [29]: > 100 µM
TGI [30]: > 100 µM
TGI [31]: > 100 µM
TGI [32]: > 100 µM
TGI [33]: > 100 µM
TGI [34]: > 100 µM
TGI [35]: > 100 µM
TGI [36]: > 100 µM
TGI [37]: > 100 µM
TGI [38]: > 100 µM
TGI [39]: > 100 µM
TGI [40]: > 100 µM
TGI [41]: > 100 µM
TGI [42]: > 100 µM
TGI [43]: > 100 µM
TGI [44]: > 100 µM
TGI [45]: > 100 µM
TGI [46]: > 100 µM
TGI [47]: > 100 µM
TGI [48]: > 100 µM
TGI [49]: > 100 µM
TGI [50]: > 100 µM
TGI [51]: > 100 µM
TGI [52]: > 100 µM
TGI [53]: > 100 µM
TGI [54]: > 100 µM
TGI [55]: > 100 µM

CC1(C)C2CCC1(C)C(NC(=O)COCCOCC(N)=O)C2 (configuration not stated)
TGI [1]: > 100 µM
TGI [2]: > 100 µM
TGI [4]: > 100 µM
TGI [5]: > 100 µM
TGI [6]: > 100 µM
TGI [7]: > 100 µM
TGI [8]: > 100 µM
TGI [9]: > 100 µM
TGI [11]: > 100 µM
TGI [12]: > 100 µM
TGI [13]: > 100 µM
TGI [14]: > 100 µM
TGI [15]: > 100 µM
TGI [16]: > 100 µM
TGI [17]: > 100 µM
TGI [18]: > 100 µM
TGI [19]: > 100 µM
TGI [20]: > 100 µM
TGI [21]: > 100 µM
TGI [22]: > 100 µM
TGI [23]: > 100 µM
TGI [24]: > 100 µM
TGI [25]: > 100 µM
TGI [26]: > 100 µM
TGI [27]: > 100 µM
TGI [28]: > 100 µM
TGI [29]: > 100 µM
TGI [30]: > 100 µM
TGI [31]: > 100 µM
TGI [32]: > 100 µM
TGI [56]: > 100 µM
TGI [33]: > 100 µM
TGI [34]: > 100 µM
TGI [35]: > 100 µM
TGI [57]: 85.1 µM
TGI [36]: > 100 µM
TGI [37]: > 100 µM
TGI [39]: > 100 µM
TGI [40]: > 100 µM
TGI [41]: > 100 µM
TGI [42]: > 100 µM
TGI [43]: > 100 µM
TGI [45]: > 100 µM
TGI [46]: > 100 µM
TGI [47]: > 100 µM
TGI [49]: > 100 µM
TGI [50]: > 100 µM
TGI [58]: > 100 µM
TGI [51]: > 100 µM
TGI [52]: > 100 µM
TGI [59]: > 100 µM
TGI [53]: > 100 µM
TGI [54]: > 100 µM
TGI [55]: > 100 µM

COc1ccc(/C=N/n2c(Cc3ccccc3)n[nH]c2=O)c(OC)c1
TGI [1]: > 59.8 µM
TGI [2]: > 100 µM
TGI [3]: > 100 µM
TGI [4]: > 61.4 µM
TGI [5]: 28.6 µM
TGI [6]: > 65.4 µM
TGI [7]: > 100 µM
TGI [8]: > 59.6 µM
TGI [9]: > 100 µM
TGI [10]: > 100 µM
TGI [11]: > 100 µM
TGI [12]: > 100 µM
TGI [13]: > 66 µM
TGI [14]: > 100 µM
TGI [15]: 84.1 µM
TGI [16]: > 100 µM
TGI [17]: > 100 µM
TGI [18]: > 65.1 µM
TGI [19]: > 100 µM
TGI [20]: > 100 µM
TGI [21]: > 100 µM
TGI [22]: > 80.9 µM
TGI [23]: 37.5 µM
TGI [24]: > 100 µM
TGI [25]: > 100 µM
TGI [26]: > 77.5 µM
TGI [27]: 99.4 µM
TGI [29]: > 60.7 µM
TGI [30]: > 100 µM
TGI [31]: > 55.1 µM
TGI [32]: > 100 µM
TGI [56]: > 100 µM
TGI [33]: > 100 µM
TGI [34]: > 100 µM
TGI [35]: > 69 µM
TGI [57]: > 100 µM
TGI [36]: > 100 µM
TGI [37]: > 100 µM
TGI [38]: > 100 µM
TGI [39]: > 49 µM
TGI [40]: > 100 µM
TGI [41]: > 56.5 µM
TGI [42]: > 63.2 µM
TGI [43]: > 92.5 µM
TGI [44]: > 85.3 µM
TGI [45]: > 58.4 µM
TGI [46]: 47 µM
TGI [47]: > 100 µM
TGI [48]: 86.5 µM
TGI [49]: > 100 µM
TGI [50]: > 100 µM
TGI [58]: > 100 µM
TGI [51]: > 100 µM
TGI [52]: > 64.5 µM
TGI [59]: > 63.1 µM
TGI [53]: > 75 µM
TGI [54]: > 31.6 µM
TGI [55]: > 62.7 µM

— PubChem BioAssay (NCI)
